Earlier results as cited in patent US20090105195A1, “COMPOSITION COMPRISING MICROBICIDAL ACTIVE INGREDIENTS” (priority 2007, published 2009).

Key:
Conditions in all cases: at low amounts, such as 0.025%
[1] = system: Human Papilloma Virus (HPV)
Herpes Simplex Virus = system: Herpes Simplex Virus
[2] = system: Human Immunodeficiency Virus

CCCCCCCCCCCCOS(=O)(=O)[O-].[Na+] [SLS, sodium lauryl sulfate]
complete inactivation: inactivation of Human Papilloma Virus (HPV) [1] | inactivation of Herpes Simplex Virus (Herpes Simplex Virus) | inactivation of Human Immunodeficiency Virus [2]
